Literature values in patent publication US20120184023A1, “Method of Preparing A Glycoside Of A Mono- Or Diacylglycerol Product From A Plant Material” (HYBEN VITAL LICENS APS, priority 2006, published 2012).

Legend:
[1] = tested on: poly-morphonuclear monocytes; settings: reported in WO 03/043613
mononuclear leukocytes = settings: reported in WO 03/043613

CC/C=C\C/C=C\C/C=C\CCCCCCCC(=O)OCC(CO[C@@H]1O[C@H](CO)[C@H](O)[C@H](O)[C@H]1O)OC(=O)CCCCCCC/C=C\C/C=C\C/C=C\CC (stereo partly drawn) [GOPO, 3-β-D-galactopyranosyloxy-2-(octadeca-9Z,12Z,15Z-trienoyloxy) propanyloctadeca-9Z,12Z,15Z-trienoate]
chemiluminescence of poly-morphonuclear monocytes [1]: alleviating chemiluminescence
chemotaxis of mononuclear leukocytes (mononuclear leukocytes): alleviating
